Experimental data taken from article PMC5864910, “Mutacin 1140 Lantibiotic Variants Are Efficacious Against Clostridium difficile Infection” (Frontiers in Microbiology, 2018).
Converted amounts (≈) assume the structure as drawn. Where two headings read alike, the source gives them in different places. No end group written: not given here.

Experiments:
[1] = test system: NMDA ion channel receptor; assay: Safety Screen 44: NMDA; format: binding, human
Mycobacterium phlei [2] = test system: Mycobacterium phlei
Ca2+ Channel [3] = assay: Safety Screen 44: Ca2+ Channel; format: binding, human
Kv Channel [4] = assay: Safety Screen 44: Kv Channel; format: binding, human
Nav Channel [5] = assay: Safety Screen 44: Nav Channel; format: binding, human
BZD (central) [6] = assay: Safety Screen 44: BZD (central); format: binding, human
[7] = test system: HepG2 human hepatocellular carcinoma cells
Protocol: The HepG2 cytotoxicity evaluation was performed by MB Research Labs (Spinnerstown, PA, United States) by the Neutral Red Uptake Bioassay of HepG2 human hepatocellular carcinoma cells in culture (ATCC #HB-8065). Briefly, HepG2 cells were seeded in the central 60 wells of 96-well plates and maintained in culture for approximately 24 h. Following pre-incubation, the culture medium was replaced with culture medium containing increasing concentrations of the test articles or control in the vehicle. Test articles were tested in triplicate wells, and reported as the mean. The cells were incubated for 24 h and cell viability was determined by Neutral Red (NR) uptake. For this assay, the medium was then replaced with NR medium (50 μg/mL NR in Hanks’ Balance Salt Solution, HBSS) and the cells were incubated for an additional 3 h. Following uptake of NR, the medium was discarded, the wells were washed with HBSS, and lysing solution (50:49:1 ethanol:water:acetic acid) was added subsequently to each well. The plates were placed on a rocker for 30 min until NR had been extracted from the cells and formed a homogeneous solution. The absorbance of each well was measured at 540 nm on a μQuant^TM plate reader (Bio-Tek Instruments) using KCjunior^TM software. The mean of the outer wells (DMEM2-FBS) was used as a reference control. The mean percent viability was determined for each concentration compared to the vehicle-treated control.

Ca2+ Channel [8] = assay: Safety Screen 44: Ca2+ Channel; format: binding, human; remark: listed apart in the source
Kv Channel [9] = assay: Safety Screen 44: Kv Channel; format: binding, human; remark: listed apart in the source
Nav Channel [10] = assay: Safety Screen 44: Nav Channel; format: binding, human; remark: listed apart in the source
BZD (central) [11] = assay: Safety Screen 44: BZD (central); format: binding, human; remark: listed apart in the source
Pseudomonas aeruginosa = assay: MIC broth dilution, P. aeruginosa; format: cell-based
Streptococcus pneumonia = assay: microbe, parasite or virus in culture; conditions: Streptococcus pneumoniae, read-out: MIC to S. pneumoniae
C. difficile UNT103-1 = assay: Cannulated Syrian hamster efficacy/relapse model of C. difficile infection (cHCDAD); format: in vivo, Golden Syrian hamsters; conditions: vancomycin 20 mg/Kg QD × 5 days, ileal canula, n = 6
Clostridium difficile = conditions: n = 3 strains; unit from method b19
Staphylococcus aureus = conditions: n = 5 strains; unit from method b19
Mycobacterium phlei [12] = assay: microbe, parasite or virus in culture; conditions: Mycolicibacterium phlei
C. difficile = test system: C. difficile; design: method as in McBride and Sonenshein, 2011; conditions: ref McBride and Sonenshein, 2011, cited from earlier work

C=C1NC(=O)[C@H](Cc2c[nH]c3ccccc23)NC(=O)[C@H](NC(=O)[C@H](CCCCN)NC(=O)[C@@H](N)Cc2ccccc2)CSC[C@@H](C(=O)N[C@H]2C(=O)N3CCC[C@H]3C(=O)NCC(=O)N[C@H](C(=O)N[C@@H](C)C(=O)N[C@@H](CCCNC(=N)N)C(=O)N/C(=C\C)C(=O)NCC(=O)N[C@@H]3CSC[C@@H]4NC(=O)[C@H](Cc5ccc(O)cc5)NC(=O)[C@@H](CS/C=C\NC4=O)NC(=O)[C@H](CC(N)=O)NC(=O)[C@H](Cc4ccc(O)cc4)NC3=O)CS[C@H]2C)NC(=O)[C@H](CC(C)C)NC1=O [F17Y]
Cerep SafetyScreen 44 % Inhibition NMDA ([1]; […]): 12%
Minimum Inhibitory Concentration Mycobacterium phlei (Mycobacterium phlei [2]): 2 µg/mL
Cerep SafetyScreen 44 % Inhibition Ca2+ Channel (Ca2+ Channel [3]): -7%
Cerep SafetyScreen 44 % Inhibition Kv Channel (Kv Channel [4]): 2%
Cerep SafetyScreen 44 % Inhibition Nav Channel (Nav Channel [5]): 2%
Cerep SafetyScreen 44 % Inhibition BZD (central) (BZD (central) [6]): -10%
HepG2 EC50 ([7]; HepG2 cytotoxicity): 514 µg/mL

C=C1NC(=O)[C@H](Cc2c[nH]c3ccccc23)NC(=O)[C@H](NC(=O)[C@H](CCCCN)NC(=O)[C@@H](N)Cc2ccccc2)CSC[C@@H](C(=O)N[C@H]2C(=O)N3CCC[C@H]3C(=O)NCC(=O)N[C@H](C(=O)N[C@@H](C)C(=O)N[C@@H](CCCNC(=N)N)C(=O)N/C(=C\C)C(=O)NCC(=O)N[C@@H]3CSC[C@@H]4NC(=O)[C@H](Cc5ccc(O)cc5)NC(=O)[C@@H](CS/C=C\NC4=O)NC(=O)[C@H](CC(N)=O)NC(=O)[C@H](Cc4ccccc4)NC3=O)CS[C@H]2C)NC(=O)[C@H](C)NC1=O [L6A]
Cerep SafetyScreen 44 % Inhibition NMDA [1]: 15%
Minimum Inhibitory Concentration Mycobacterium phlei (Mycobacterium phlei [2]): 4 µg/mL
Cerep SafetyScreen 44 % Inhibition Ca2+ Channel (Ca2+ Channel [8]): 3%
Cerep SafetyScreen 44 % Inhibition Kv Channel (Kv Channel [9]): 8%
Cerep SafetyScreen 44 % Inhibition Nav Channel (Nav Channel [10]): 8%
Cerep SafetyScreen 44 % Inhibition BZD (central) (BZD (central) [11]): -6%
HepG2 EC50 ([7]; HepG2 cytotoxicity): 466 µg/mL

C=C1NC(=O)[C@H](Cc2c[nH]c3ccccc23)NC(=O)[C@H](NC(=O)[C@H](CCCCN)NC(=O)[C@@H](N)Cc2ccccc2)CSC[C@@H](C(=O)N[C@H]2C(=O)N3CCC[C@H]3C(=O)NCC(=O)N[C@H](C(=O)N[C@@H](C)C(=O)N[C@@H](CCCNC(=N)N)C(=O)N/C(=C\C)C(=O)NCC(=O)N[C@@H]3CSC[C@@H]4NC(=O)[C@H](Cc5ccc(O)cc5)NC(=O)[C@@H](CS/C=C\NC4=O)NC(=O)[C@H](CC(N)=O)NC(=O)[C@H](Cc4ccccc4)NC3=O)CS[C@H]2C)NC(=O)[C@H]([C@@H](C)O)NC1=O [L6T]
Minimum Inhibitory Concentration Mycobacterium phlei (Mycobacterium phlei [2]): 4 µg/mL
HepG2 EC50 ([7]; 24 h): 541 µg/mL

CC1COc2c(N3CCN(C)CC3)c(F)cc3c(=O)c(C(=O)O)cn1c23 (stereo not drawn) [Ofloxacin]
MIC (Pseudomonas aeruginosa): 1000 µg/mL (≈ 2770 µM)

C=C1NC(=O)[C@H](Cc2c[nH]c3ccccc23)NC(=O)[C@H](NC(=O)[C@H](CCCCN)NC(=O)[C@@H](N)Cc2ccccc2)CSC[C@@H](C(=O)N[C@H]2C(=O)N[C@@H](Cc3c[nH]cn3)C(=O)NCC(=O)N[C@H](C(=O)N[C@@H](C)C(=O)N[C@@H](CCCNC(=N)N)C(=O)N/C(=C\C)C(=O)NCC(=O)N[C@@H]3CSC[C@@H]4NC(=O)[C@H](Cc5ccc(O)cc5)NC(=O)[C@@H](CS/C=C\NC4=O)NC(=O)[C@H](CC(N)=O)NC(=O)[C@H](Cc4ccccc4)NC3=O)CS[C@H]2C)NC(=O)[C@H](CC(C)C)NC1=O [P9H]
Minimum Inhibitory Concentration Mycobacterium phlei (Mycobacterium phlei [2]): 4 µg/mL
HepG2 EC50 ([7]; 24 h): 218 µg/mL

C=C1NC(=O)[C@H](Cc2c[nH]c3ccccc23)NC(=O)[C@H](NC(=O)[C@H](CCCCN)NC(=O)[C@@H](N)Cc2ccccc2)CSC[C@@H](C(=O)N[C@H]2C(=O)N3CCC[C@H]3C(=O)NCC(=O)N[C@H](C(=O)N[C@@H](C)C(=O)N[C@@H](C)C(=O)N/C(=C\C)C(=O)NCC(=O)N[C@@H]3CSC[C@@H]4NC(=O)[C@H](Cc5ccc(O)cc5)NC(=O)[C@@H](CS/C=C\NC4=O)NC(=O)[C@H](CC(N)=O)NC(=O)[C@H](Cc4ccccc4)NC3=O)CS[C@H]2C)NC(=O)[C@H](CC(C)C)NC1=O [R13A]
Minimum Inhibitory Concentration Mycobacterium phlei (Mycobacterium phlei [2]): 8 µg/mL

C=C1NC(=O)[C@H](Cc2c[nH]c3ccccc23)NC(=O)[C@H](NC(=O)[C@H](CCCCN)NC(=O)[C@@H](N)Cc2ccccc2)CSC[C@@H](C(=O)N[C@H]2C(=O)N3CCC[C@H]3C(=O)NCC(=O)N[C@H](C(=O)N[C@@H](C)C(=O)N[C@@H](CC(C)C)C(=O)N/C(=C\C)C(=O)NCC(=O)N[C@@H]3CSC[C@@H]4NC(=O)[C@H](Cc5ccc(O)cc5)NC(=O)[C@@H](CS/C=C\NC4=O)NC(=O)[C@H](CC(N)=O)NC(=O)[C@H](Cc4ccccc4)NC3=O)CS[C@H]2C)NC(=O)[C@H](CC(C)C)NC1=O [R13L]
Minimum Inhibitory Concentration Mycobacterium phlei (Mycobacterium phlei [2]): 8 µg/mL

C=C1NC(=O)[C@H](C)NC(=O)[C@H](NC(=O)[C@H](CCCCN)NC(=O)[C@@H](N)Cc2ccccc2)CSC[C@@H](C(=O)N[C@H]2C(=O)N3CCC[C@H]3C(=O)NCC(=O)N[C@H](C(=O)N[C@@H](C)C(=O)N[C@@H](CCCNC(=N)N)C(=O)N/C(=C\C)C(=O)NCC(=O)N[C@@H]3CSC[C@@H]4NC(=O)[C@H](Cc5ccc(O)cc5)NC(=O)[C@@H](CS/C=C\NC4=O)NC(=O)[C@H](CC(N)=O)NC(=O)[C@H](Cc4ccccc4)NC3=O)CS[C@H]2C)NC(=O)[C@H](CC(C)C)NC1=O [W4A]
Minimum Inhibitory Concentration Mycobacterium phlei (Mycobacterium phlei [2]): 2 µg/mL
HepG2 EC50 ([7]; 24 h): > 1001

C=C1NC(=O)[C@H](C(C)C)NC(=O)[C@H](NC(=O)[C@H](CCCCN)NC(=O)[C@@H](N)Cc2ccccc2)CSC[C@@H](C(=O)N[C@H]2C(=O)N3CCC[C@H]3C(=O)NCC(=O)N[C@H](C(=O)N[C@@H](C)C(=O)N[C@@H](CCCNC(=N)N)C(=O)N/C(=C\C)C(=O)NCC(=O)N[C@@H]3CSC[C@@H]4NC(=O)[C@H](Cc5ccc(O)cc5)NC(=O)[C@@H](CS/C=C\NC4=O)NC(=O)[C@H](CC(N)=O)NC(=O)[C@H](Cc4ccccc4)NC3=O)CS[C@H]2C)NC(=O)[C@H](CC(C)C)NC1=O [W4V]
Minimum Inhibitory Concentration Mycobacterium phlei (Mycobacterium phlei [2]): 4 µg/mL
HepG2 EC50 ([7]; 24 h): > 1002

CC1(C)S[C@@H]2[C@H](NC(=O)[C@H](N)c3ccccc3)C(=O)N2[C@H]1C(=O)O [ampicillin]
MIC (Streptococcus pneumonia): 1 µg/mL (≈ 2.86 µM)

CN[C@H](CC(C)C)C(=O)N[C@H]1C(=O)N[C@@H](CC(N)=O)C(=O)N[C@H]2C(=O)N[C@H]3C(=O)N[C@H](C(=O)N[C@H](C(=O)O)c4cc(O)cc(O)c4-c4cc3ccc4O)[C@H](O)c3ccc(c(Cl)c3)Oc3cc2cc(c3O[C@@H]2O[C@H](CO)[C@@H](O)[C@H](O)[C@H]2O[C@H]2C[C@](C)(N)[C@H](O)[C@H](C)O2)Oc2ccc(cc2Cl)[C@H]1O [vancomycin]
survival at day 21 (C. difficile UNT103-1): 33%
MIC against C. difficile (range) (Clostridium difficile): 0.5 to 4 µg/mL
MIC against S. aureus (range) (Staphylococcus aureus): 0.125 to 2 µg/mL
MIC (Mycobacterium phlei [12]; read-out: MIC, M. phlei): 0.25 µg/mL (≈ 0.173 µM)
MIC (Mycobacterium phlei [12]; read-out: Minimum Inhibitory Concentration Mycobacterium phlei): 250 µg/mL (≈ 173 µM)

gallidermin (IASKFLCTPGCAKTGSFNSYCC; thioether (positions not given here); also: lanthionine/methyllanthionine bridges, places not given here; UniProt P21838 31-52, looked up) [lantibiotic cited from literature]
MIC increase of C. difficile (C. difficile; cpr resistance): 2–4 fold
MIC of C. difficile (C. difficile; level after MIC increase (cpr)): ~1 µg/mL
